What was measured:
PED coronavirus = settings: component alone; statement without data; cited from earlier work
TNF-α = assay: Inhibitory effect on TNF-α in PED coronavirus-infected Vero cells; format: cell-based; settings: 10 μM, vs virus-infected group
Protocol: To investigate the inhibitory effect of the complex on TNF-α, which is a pro-inflammatory cytokine involved in promoting inflammation, virus infection was performed in the same manner as in Example 2-1, followed by treatment with the complex.

IL-6 = assay: Inhibitory effect on IL-6 in PED coronavirus-infected Vero cells; format: cell-based; settings: 10 μM, vs virus-infected group
Protocol: To investigate the inhibitory effect of the complex on IL-6, which is a pro-inflammatory cytokine involved in promoting inflammation, virus infection was performed in the same manner as in Example 2-1, followed by treatment with the complex.

IL-8 = assay: Inhibitory effect on IL-8 in PED coronavirus-infected Vero cells; format: cell-based; settings: 10 μM, vs virus-infected group
Protocol: To investigate the inhibitory effect of the complex on IL-8, which is a pro-inflammatory cytokine involved in promoting inflammation, virus infection was performed in the same manner as in Example 2-1, followed by treatment with the complex.

[1] = tested on: nucleoprotein (N protein) of the PED coronavirus; settings: 10 μM, vs virus-infected group
Protocol: To investigate the target protein expression inhibitory effect of the complex on the nucleoprotein (N protein) of the PED coronavirus, Vero cells were infected with 0.001 MOI of PED coronavirus for 1 hour.

For `COc1cc(/C=C/C(=O)/C=C(O)/C=C/c2ccc(O)c(OC)c2)ccc1O` [curcumin], the “inhibitory effect against PED coronavirus” value (PED coronavirus) is listed as “no inhibitory effect”.
With `O=c1cnn([C@@H]2O[C@H](CO)[C@@H](O)[C@H]2O)c(=O)[nH]1` [6-azauridine] the “inhibitory effect on TNF-α” value (TNF-α) was 3.8 fold, the “inhibitory effect on IL-6” value (IL-6) was 5.8 fold and the “inhibitory effect on IL-8” value (IL-8) was 25.4 fold. The “nucleoprotein synthesis inhibition (inhibitory effect)” value [1] was 6.8 fold.

Reference: patent US20230000940A1, “Composition for prevention or treatment of Porcine epidemic diarrhea virus infection comprising curcuminoid and licorice extracts or fraction thereof” (KOREA RESEARCH INSTITUTE OF BIOSCIENCE AND BIOTECHNOLOGY, priority 2019, published 2023)
